Source: patent US12285437B2 (The Research Foundation for The State University of new York, priority 2019, dated 2025)
Like-named read-outs stand apart in the source and are kept apart here.

Columns and labels:
[1] = test system: PC-3 human prostate cancer cells; details: FIG. 9B, PC3, […], 4 μM
Protocol: (§1) pH-dependent anti-proliferation assays with cells. In 96-well plates, ˜3,000 cells were seeded per well then grown for 24-48 hr until 30-40% confluency. […] For serum effect cell plate data shown in FIG. 5I, cell viability was measured using alamar Blue assay (i.e., growth media was replaced with 45 μL of pH 7.4 DMEM/F-12 media without phenol red, 5 μL of alamar Blue reagent (10×) was added; fluorescence at 590 nm was recorded after excitation at 560 nm at 1 hr afterwards).
(§2) The reaction solution was allowed to stand at rt for 1 hr in the dark, during which the pH decreased to ˜9.6. After 1 hr, the reaction solution was split into two 50-μL portions (for pH 7.4 vs. pH 6.2-6.8 cell experiments). The pH of one portion was adjusted to pH 8 (for pH 7.4 cell experiments) or pH 7 (for pH 6.2-6.8 cell experiments). Subsequently, the solution was diluted 30-fold (to 10 μM) with pH 7.4 or pH 6.2-6.8 cell media (final volume 1.5 mL) and then filtered (0.2 micron) before used in cell experiments.

[2] = test system: ES-2 human ovarian cancer cells; assay: pH-dependent anti-proliferation assay (MTS; alamar Blue for FIG. 7I); details: for Cell Viability Average (Avg): FIG. 7A, ES-2, 6 hr
Source text: pH-dependent anti-proliferation assays with cells.
NaOH to adjust the pH to 9.9.

[3] = test system: noncancerous kidney epithelial HK2 cells; assay: Cytotoxicity assays with noncancerous HK2 kidney cells; assay type: cell-based, human
Protocol: Cytotoxicity assays with noncancerous HK2 kidney cells. […] Dox and DMA prodrug experiments were carried out on separate plates. […] The cell viability in vehicle (buffer/DMSO) negative control treatment groups were treated as 100% during normalization of data.

[4] = cancer patients, two hours afterwards; cited from earlier work
[5] = test system: SKOV3 human ovarian cancer cells; details: FIG. 9A, 4 μM
Protocol: as §1, §2

[6] = test system: MDA-MB-231 human breast cancer cells; details: 3 μM
Protocol: as §1, §2

ES2 cells = assay: Imaging studies (confocal microscopy); assay type: cell-based, human; details: ES2, 1 h
Protocol: Afterwards, the treatment solution was removed; the nuclei of the cells were labeled with staining dye Hoechst 33342; and then images were taken on a scanning confocal microscope.
Imaging studies (confocal microscopy). Approximately 8,000 ES2 cells were seeded on a colIagen-coated glass dish (MatTek Corporation, part No. P35GCOL-0-10-C) and cultured in McCoy's 5A medium with 10% fetal bovine serum and 1% penicillin-streptomycin at 37° C. in the incubator (5% CO2) overnight. […] After treatment solution was removed, the cells were washed 1× with 100 μL of DMEM/F12 pH-specific media. Prior to fluorescence imaging, the nuclei of cells were stained with 1 μg/mL Hoechst 33342 in PBS for 20 min at 37° C. in the incubator. Afterwards, cells stayed in pH-specific DMEM/F12 media during imaging. […] The images in FIGS. 33-36 were processed using LAS X and ImageJ.

[7] = test system: NIH:OVCAR3 human ovarian cancer cells
Protocol: as §1, §2

ES2 ovarian cancer cells = assay: Antiproliferation assays against ES2 cancer cells at different pH values; assay type: cell-based, human; details: ES2, 2 h, 1 μM
Protocol: For cell experiments, a pH 8 or pH 10 (directly from DMI to DMA conversion) solution of DMA 2/4/6 was sterilized by filtering through a 0.2-micron membrane. […] At this point, small amounts of 10 (or 25) mM of sterile aq.
Antiproliferation assays against ES2 cancer cells at different pH values. […] Treatment solution volume was 50-100 μL per well, with a set volume per well for all wells in a plate.

With `COc1cccc2c1C(=O)c1c(O)c3c(c(O)c1C2=O)C[C@@](O)(C(=O)CO)C[C@@H]3O[C@H]1C[C@H](N)[C@H](O)[C@H](C)O1` [Dox, doxorubicin] the “Cell Viability Avg” value ([1]; pH 6.3-6.4) was 53%, the “Cell Viability Avg” value ([1]; pH 7.5-7.6) was 15% and the “Cell Viability Average (Avg)” value ([2]; 0.5 μM, pH 6.6-6.8) was 32%. The “Cell Viability Average (Avg)” value ([2]; 0.5 μM, pH 7.2-7.5) was 16%, the “Cell Viability Avg” value ([2]; FIG. 7E, ES2, […], 1 μM, pH 6.3-6.4) was 43% and the “Cell Viability Avg” value ([2]; FIG. 7E, ES2, […], 1 μM, pH 6.5) was 49%. For the same compound, the “Cell Viability Avg” value ([2]; FIG. 7E, ES2, […], 1 μM, pH 6.7-6.8) was 44%, the “Cell Viability Avg” value ([2]; FIG. 7E, ES2, […], 1 μM, pH 6.8-6.9) was 42% and the “Cell Viability Avg” value ([2]; FIG. 7E, ES2, […], 1 μM, pH 7.2) was 25%. The “Cell Viability Avg” value ([2]; FIG. 7E, ES2, […], 1 μM, pH 7.2-7.4) was 23%, the “Cell Viability Avg” value ([2]; FIG. 7I, ES2, FBS(50%), 1 μM, pH 6.5-6.9) was 71% and the “Cell Viability Avg” value ([2]; FIG. 7I, ES2, FBS(50%), 1 μM, pH 7.2-7.7) was 36%. The “Cell Viability Avg” value ([2]; FIG. 7I, ES2, no FBS, 1 μM, pH 6.5-6.9) was 77%, the “Cell Viability Avg” value ([2]; FIG. 7I, ES2, no FBS, 1 μM, pH 7.2-7.7) was 48% and the “Cell Viability Avg” value ([2]; FIG. 8A, ES2, 0.1 μM, pH 6.6-6.7) was 87%. The “Cell Viability Avg” value ([2]; FIG. 8A, ES2, 0.1 μM, pH 7.5-7.6) was 62%, the “Cell Viability Avg” value ([2]; FIG. 8A, ES2, 0.3 μM, pH 6.6-6.7) was 72% and the “Cell Viability Avg” value ([2]; FIG. 8A, ES2, 0.3 μM, pH 7.5-7.6) was 33%. For the same compound, the “Cell Viability Avg” value ([2]; FIG. 8A, ES2, 1 μM, pH 6.6-6.7) was 35%, the “Cell Viability Avg” value ([2]; FIG. 8A, ES2, 1 μM, pH 7.5-7.6) was 15% and the “Cell Viability Avg” value ([2]; FIG. 8A, ES2, 3 μM, pH 6.6-6.7) was 21%. The “Cell Viability Avg” value ([2]; FIG. 8A, ES2, 3 μM, pH 7.5-7.6) was 2%, the “Cell Viability Avg” value ([2]; FIG. 8B, ES2, 2 hr, 1 μM, pH 6.6-6.8) was 44% and the “Cell Viability Avg” value ([2]; FIG. 8B, ES2, 2 hr, 1 μM, pH 7.2-7.6) was 23%. The “Cell Viability Avg” value ([2]; FIG. 8B, ES2, 6 hr, 0.5 μM, pH 6.6-6.8) was 32%, the “Cell Viability Avg” value ([2]; FIG. 8B, ES2, 6 hr, 0.5 μM, pH 7.2-7.6) was 16% and the “Cell Viability Avg” value ([2]; FIG. 8B, ES2, 12 hr, 0.5 μM, pH 6.6-6.8) was 47%. For the same compound, the “Cell Viability Avg” value ([2]; FIG. 8B, ES2, 12 hr, 0.5 μM, pH 7.2-7.6) was 13%, the “Cell Viability Avg” value ([2]; FIG. 8B, ES2, 24 hr, 1 μM, pH 6.6-6.8) was 35% and the “Cell Viability Avg” value ([2]; FIG. 8B, ES2, 24 hr, 1 μM, pH 7.2-7.6) was 15%. For the same compound, the “Cell Viability Avg” value ([2]; FIG. 10B, ES2, 12 hr, 0.5 μM, pH 6.6-6.7) was 47%, the “Cell Viability Avg” value ([2]; FIG. 10B, ES2, 12 hr, 0.5 μM, pH 7.4-7.6) was 13% and the viability ([3]; FIG. 29B, HK2, pH 7.4, 30 μM) was 21%. For the same compound, the cells killed ([3]; FIG. 30B, HK2, pH 7.4, 1 μM) was 20%, the viable cells ([3]; FIG. 30B, HK2, pH 7.4, 30 μM) was 31% and the cells killed ([3]; FIG. 31B, HK2, pH 7.4, 30 μM) was > 80%. The intratumoral concentration [4] was 0.5 to 5 mM, the “Cell Viability Avg” value ([5]; pH 6.3-6.5) was 39% and the “Cell Viability Avg” value ([5]; pH 7.5-7.6) was 22%. For the same compound, the “Cell Viability Avg” value ([6]; FIG. 7B, MDA-MB231, 2 hr, pH 6.3-6.4) was 30%, the “Cell Viability Avg” value ([6]; FIG. 7B, MDA-MB231, 2 hr, pH 7.6-7.7) was 15% and the “Cell Viability Avg” value ([6]; FIG. 7F, MDA-MB231, […], pH 6.3-6.4) was 30%. The “Cell Viability Avg” value ([6]; FIG. 7F, MDA-MB231, […], pH 6.5) was 29%, the “Cell Viability Avg” value ([6]; FIG. 7F, MDA-MB231, […], pH 6.6-6.7) was 36% and the “Cell Viability Avg” value ([6]; FIG. 7F, MDA-MB231, […], pH 6.9-7.0) was 30%. For the same compound, the “Cell Viability Avg” value ([6]; FIG. 7F, MDA-MB231, […], pH 7.2-7.3) was 29%, the “Cell Viability Avg” value ([6]; FIG. 7F, MDA-MB231, […], pH 7.5-7.7) was 31% and the “distribution of Dox fluorescence within cells” value (ES2 cells) was “within the nuclei”. The “Dox fluorescence signals in cells, pH 6.7 vs. 7.7” value (ES2 cells; 4 μM Dox or 8 μM prodrug/DMI) was “More Dox fluorescence signals were observed at pH 7.7 than 6.7”, the “Cell Viability Avg” value ([7]; FIG. 7C, OVCAR3, 2 hr, 3 μM, pH 6.3-6.4) was 57% and the “Cell Viability Avg” value ([7]; FIG. 7C, OVCAR3, 2 hr, 3 μM, pH 7.4-7.6) was 24%. For the same compound, the “Cell Viability Avg” value ([7]; FIG. 7G, OVCAR3, 2 hr, 2 μM, pH 6.2-6.4) was 60%, the “Cell Viability Avg” value ([7]; FIG. 7G, OVCAR3, 2 hr, 2 μM, pH 6.4-6.5) was 55% and the “Cell Viability Avg” value ([7]; FIG. 7G, OVCAR3, 2 hr, 2 μM, pH 6.6-6.7) was 58%. For the same compound, the “Cell Viability Avg” value ([7]; FIG. 7G, OVCAR3, 2 hr, 2 μM, pH 6.8-6.9) was 46%, the “Cell Viability Avg” value ([7]; FIG. 7G, OVCAR3, 2 hr, 2 μM, pH 7.1-7.3) was 51% and the “Cell Viability Avg” value ([7]; FIG. 7G, OVCAR3, 2 hr, 2 μM, pH 7.2-7.5) was 48%. The “Cell Viability Avg” value ([7]; FIG. 10A, OVCAR3, 6 hr, 1 μM, pH 6.5-6.7) was 81%, the “Cell Viability Avg” value ([7]; FIG. 10A, OVCAR3, 6 hr, 1 μM, pH 7.3-7.6) was 51% and the viability (ES2 ovarian cancer cells; pH 6.6-6.8) was 60-70%. For the same compound, the viability (ES2 ovarian cancer cells; FIG. 29A, pH 6.7) was 60-70%, the viability (ES2 ovarian cancer cells; FIG. 29A, pH 7.5) was 28% and the viability (ES2 ovarian cancer cells; FIG. 31A, pH 6.5-6.8) was 40-60%. It also gave a viability (ES2 ovarian cancer cells; FIG. 31A, pH 7.5) of ~20%.
